Source: ChEMBL document CHEMBL1157523, “Synthesis and in vivo evaluation of 11-substituted estradiol derivatives as anti-implantation agents” (2008)
Active and inactive are the calls of the source. The rule behind the calls is not given here.

Experiments:
Type in all cases: functional
Rattus norvegicus [1] = test: Antiimplantation activity against Sprague-Dawley albino rat at 1 mg/kg, po administered for 1-5 days measured on day 10 of pregnancy relative to control
Rattus norvegicus [2] = test: Antiimplantation activity against Sprague-Dawley albino rat at 2 mg/kg, po administered for 1-5 days measured on day 10 of pregnancy relative to control
Rattus norvegicus [3] = test: Antiimplantation activity against Sprague-Dawley albino rat at 10 mg/kg, po administered for 1-5 days measured on day 10 of pregnancy relative to control
Rattus norvegicus [4] = test: Antiimplantation activity against Sprague-Dawley albino rat at 1.5 mg/kg, po administered for 1-5 days measured on day 10 of pregnancy relative to control
Rattus norvegicus [5] = test: Antiimplantation activity against Sprague-Dawley albino rat at 5 mg/kg, po administered for 1-5 days measured on day 10 of pregnancy relative to control
Rattus norvegicus [6] = test: Antiimplantation activity against Sprague-Dawley albino rat at 2.5 mg/kg, po administered for 1-5 days measured on day 10 of pregnancy relative to control
Rattus norvegicus [7] = test: Antiimplantation activity against Sprague-Dawley albino rat at 1.25 mg/kg, po administered for 1-5 days measured on day 10 of pregnancy relative to control

| SMILES | Activity (Rattus norvegicus [1]) | Activity (Rattus norvegicus [2]) | Activity (Rattus norvegicus [3]) | Activity (Rattus norvegicus [4]) | Activity (Rattus norvegicus [5]) | Activity (Rattus norvegicus [6]) | Activity (Rattus norvegicus [7]) |
| --- | --- | --- | --- | --- | --- | --- | --- |
| C=CCC1(O)C[C@]2(C)[C@@H](O)CC[C@H]2C2=C1c1ccc(OC)cc1CC2 (stereo partly specified) | 60% | 100% | 100% | 60% | 100% | – | – |
| COc1ccc2c(c1)OC(C)(C)C(c1ccccc1)C2c1ccc(OCCN2CCCC2)cc1 (stereo unspecified) [ORMELOXIFENE] | 100% | – | 100% | – | – | – | – |
| C=CCC1=C[C@]2(C)[C@@H](O)CC[C@H]2C2=C1c1ccc(OC)cc1CC2 | – | – | 100% | – | – | – | – |
| COc1ccc2c(c1)CCC1=C2C(C)(O)C[C@]2(C)[C@@H](O)CC[C@@H]12 (stereo partly specified) | – | 100% | 100% | – | 100% | – | – |
| COc1ccc2c(c1)CCC1=C2C(O)(Cc2ccccc2)C[C@]2(C)[C@@H](O)CC[C@@H]12 (stereo partly specified) | – | – | 100% | – | – | – | – |
| C=CCC1(O)C[C@]2(C)[C@@H](OC(C)=O)CC[C@H]2C2=C1c1ccc(OC)cc1CC2 (stereo partly specified) | – | – | 100% | – | – | – | – |
| CCC1(O)C[C@]2(C)[C@@H](O)CC[C@H]2C2=C1c1ccc(OC)cc1CC2 (stereo partly specified) | 50% | – | 100% | – | 100% | 100% | 100% |
| COc1ccc2c(c1)CCC1=C2C(=O)C[C@]2(C)[C@@H](O)CC[C@@H]12 | – | inactive | 100% | – | 100% | – | – |
